The test system of experiment [1] is E. coli RNase P RNA, M1 RNA. Nature of the experiment: Inhibition of bacterial RNase P activity, IC50 determination (cleavage of pATSerUG by M1 RNA). Format: biochemical. The note with it: NI: No inhibition.
The subject of experiment [2] is Escherichia coli (ATCC25922). Nature of the experiment: MIC, broth microdilution (CLSI), Escherichia coli. Particulars: Escherichia coli, ATCC25922, read-out: E. coli ATCC 25922 MIC, Table XIII. Background: Dilution methods test growth across graded concentrations, often in twofold steps.
Experiment [3] concerns Staphylococcus aureus (ATCC25923). Kind of experiment: MIC, broth microdilution (CLSI), Staphylococcus aureus ATCC25923. Particulars: Staphylococcus aureus, ATCC25923, read-out: S. aureus ATCC 25923 MIC.

Structures can show the parent of a compound that is named as a salt.

The term IC50 denotes the midpoint of a concentration-inhibition curve. A higher IC50 goes with weaker potency. As a reminder, the MIC is the smallest concentration in the dilution series that meets the test's criterion for growth inhibition. The compound `Cc1cccc(C(CCN(C)C2CCNCC2)c2cn(CC3CCCCC3)c3ccc(Br)cc23)c1` (stereo not drawn) [Compound 291, N-(3-(5-bromo-1-(cyclohexylmethyl)-1H-indol-3-yl)-3-(m-tolyl)propyl)-N-methylpiperidin-4-amine hydrochloride salt] had an IC50 in experiment [1] of 10 µM. Besides, the MIC in experiment [2] turned out to be 10 µg/mL; in experiment [3] it was 2 µg/mL.

As for `Cc1cccc(C(CC(=O)N[C@H]2CC[C@H](N)CC2)c2cn(CC3CCCCC3)c3ccc(-c4ccccc4)cc23)c1.Cl` (stereo partly drawn) [Compound 153, N-((1R,4R)-4-aminocyclohexyl)-3-(1-(cyclohexylmethyl)-5-phenyl-1H-indol-3-yl)-3-(m-tolyl)propanamide hydrochloride salt], in experiment [1], the IC50 was found to be 41 µM. For the same compound, the MIC in experiment [2] is > 512 µg/mL; in experiment [3], 64 µg/mL.

With `N[C@H]1CC[C@@H](NC(=O)c2coc(CN(CCc3c[nH]c4ccccc34)Cc3ccc(F)cc3)n2)CC1` [Compound 61, 2-(((2-(1H-indol-3-yl)ethyl)(4-fluorobenzyl)amino)methyl)-N-((1s,4s)-4-aminocyclohexyl) oxazole-4-carboxamide hydrochloride salt], in experiment [1], the IC50 came to 182 µM. The MIC turned out to be 251 µg/mL in experiment [2] and 63 µg/mL in experiment [3].

In turn, `N[C@@H](Cc1cn(CC2CCCCC2)c2ccccc12)C(=O)N[C@H]1CC[C@H](N)CC1` [Compound 264, (S)-2-amino-N-((1R,4S)-4-aminocyclohexyl)-3-(1-(cyclohexylmethyl)-1H-indol-3-yl)propanamide hydrochloride salt] yielded an IC50 in experiment [1] of 298 µM. The values for the minimum inhibitory concentration (MIC) in experiment [2] and in experiment [3] were > 512 µg/mL and 240 µg/mL, respectively.

As to `Cc1cccc(C(CC(=O)NCC2CNCCO2)c2cn(CC3CCCCC3)c3ccccc23)c1.Cl` (stereo not drawn) [Compound 280, 3-(1-(cyclohexylmethyl)-1H-indol-3-yl)-N-(morpholin-2-ylmethyl)-3-(m-tolyl)propanamide hydrochloride salt], in experiment [1], the IC50 was 103 µM. In addition, the MIC in experiment [2] was 131 µg/mL; in experiment [3], 16 µg/mL.

Take `Cc1cccc(C(CC(=O)NC2CCNCC2)c2cn(CC3CCCCC3)c3ccc(Br)cc23)c1.Cl` (stereo not drawn) [Compound 121, 3-(5-bromo-1-(cyclohexylmethyl)-1H-indol-3-yl)-N-(piperidin-4-yl)-3-(m-tolyl) propanamide hydrochloride salt]: in experiment [1], the IC50 was 8 µM. Also, the values for the MIC in experiment [2] and in experiment [3] were 256 µg/mL and 8 µg/mL, respectively.

With `Cc1cccc(C(CC(=O)N[C@H]2CC[C@H](N)CC2)c2cn(C(C)C3CCCCC3)c3ccccc23)c1.Cl` (stereo partly drawn) [Compound 299, N-((1r,4r)-4-aminocyclohexyl)-3-(1-(1-cyclohexylethyl)-1H-indol-3-yl)-3-(m-tolyl)propanamide hydrochloride salt], in experiment [1], half-maximal inhibition (IC50) required 32 µM. In addition, the MIC in experiment [2] was found to be 134 µg/mL; in experiment [3], 8 µg/mL.

For the compound `Cc1cccc(C(CC(=O)NC2CCC(N)CC2)c2cn(CC3CCCCC3)c3ccc(C#N)cc23)c1.Cl` [Compound 236, N-((1S,4S)-4-aminocyclohexyl)-3-(5-cyano-1-(cyclohexylmethyl)-1H-indol-3-yl)-3-(m-tolyl)propanamide hydrochloride salt], in experiment [1], it took 20 µM to reach half-maximal inhibition (IC50). The minimal inhibitory concentration (MIC) was 68 µg/mL in experiment [2] and 9 µg/mL in experiment [3].

As for `Cc1cccc(C(CC(=O)NC2CCC(N)CC2)c2cn(CC3CCCCC3)c3c(Br)cccc23)c1.Cl` [Compound 174, N-((1S,4S)-4-aminocyclohexyl)-3-(7-bromo-1-(cyclohexylmethyl)-1H-indol-3-yl)-3-(m-tolyl)propanamide hydrochloride salt], the IC50 in experiment [1] came to 32 µM. The MIC in experiment [2] is > 512 µg/mL; in experiment [3], 150 µg/mL.

`Cc1cccc(C(CCN[C@H]2CC[C@H](O)CC2)c2cn(CC3CCCCC3)c3ccccc23)c1.Cl` (stereo partly drawn) [Compound 218, (1R,4R)-4-((3-(1-(cyclohexylmethyl)-1H-indol-3-yl)-3-(m-tolyl)propyl)amino) cyclohexan-1-ol hydrochloride salt]: the IC50 in experiment [1] worked out at 45 µM. The MIC was > 512 µg/mL in experiment [2] and 8 µg/mL in experiment [3].

Turning to `Cc1cccc(C(CC(=O)NC2CCC(N)CC2)c2cn(CC3CCCCC3)c3ccc(-c4ccnn4C)cc23)c1.Cl` (stereo not drawn) [Compound 183, N-(4-aminocyclohexyl)-3-(1-(cyclohexylmethyl)-5-(1-methyl-1H-pyrazol-5-yl)-1H-indol-3-yl)-3-(m-tolyl)propanamide hydrochloride salt], the 50% inhibitory concentration (IC50) in experiment [1] was 17 µM. The results for the MIC in experiment [2] and in experiment [3] were 151 µg/mL and 9 µg/mL, respectively.

On to `Cl.NC1CCC(C(=O)N2CCC(c3cn(CC4CCCCC4)c4ccccc34)CC2)CC1` (stereo not drawn) [Compound 200, (4-aminocyclohexyl) (4-(1-(cyclohexylmethyl)-1H-indol-3-yl)piperidin-1-yl)methanone hydrochloride salt], for which the midpoint of inhibition in experiment [1], the IC50, lay at 5.9 µM. For the same compound, the MIC in experiment [2] came to 59 µg/mL; in experiment [3], 15 µg/mL.

`Cc1cccc(C(CC(=O)NC2CCNCC2)c2cn(Cc3ccccc3)c3ccccc23)c1.Cl` (stereo not drawn) [Compound 80, 3-(1-benzyl-1H-indol-3-yl)-N-(piperidin-4-yl)-3-(m-tolyl)propanamide hydrochloride salt] gave an IC50 in experiment [1] of 41 µM. In addition, the MIC was 64 µg/mL in experiment [2] and 32 µg/mL in experiment [3].

In experiment [1], `Cc1cccc(C(CC(=O)NC2CCNCC2)c2cn(CC3CCCC3)c3ccccc23)c1.Cl` (stereo not drawn) [Compound 112, 3-(1-(cyclopentylmethyl)-1H-indol-3-yl)-N-(piperidin-4-yl)-3-(m-tolyl)propanamide hydrochloride salt] returned an IC50 of 68 µM. Further, the MIC in experiment [2] was determined as 64 µg/mL; in experiment [3] it was 16 µg/mL.

Compound `Cc1cccc(C(CC(=O)NCC2CCC(CN)CC2)c2cn(CC3CCCCC3)c3ccc(Br)cc23)c1.Cl` (stereo not drawn) [Compound 203, N-((4-(aminomethyl)cyclohexyl)methyl)-3-(5-bromo-1-(cyclohexylmethyl)-1H-indol-3-yl)-3-(m-tolyl)propanamide hydrochloride salt] came in with an IC50 in experiment [1] of 115 µM. The MIC in experiment [2] was > 512 µg/mL; in experiment [3], 5 µg/mL.

As for `Cc1cccc(C(CC(=O)N(C)C2CCNCC2)c2cn(CC3CCCCC3)c3ccccc23)c1.Cl` (stereo not drawn) [Compound 279, 3-(1-(cyclohexylmethyl)-1H-indol-3-yl)-N-methyl-N-(piperidin-4-yl)-3-(m-tolyl)propanamide hydrochloride salt], in experiment [1], half-maximal inhibition (IC50) was put at 34 µM. Further, the MIC in experiment [2] was determined as 65 µg/mL; in experiment [3], 8 µg/mL.

Compound `Cc1cccc(C(CC(=O)NCCN(C)C)c2cn(CC3CCCCC3)c3ccccc23)c1.Cl` (stereo not drawn) [Compound 103, 3-(1-(cyclohexylmethyl)-1H-indol-3-yl)-N-(2-(dimethylamino)ethyl)-3-(m-tolyl)propanamide hydrochloride salt] had an IC50 in experiment [1] of 200 µM. The minimum inhibitory concentration (MIC) in experiment [2] came out at 128 µg/mL; in experiment [3], 16 µg/mL.

As for `Cc1cccc(C(CC(=O)N[C@H]2CC[C@@H](N)CC2)c2cn(Cc3ccccc3)c3ncccc23)c1.Cl` (stereo partly drawn) [Compound 41, N-((1s,4s)-4-aminocyclohexyl)-3-(1-benzyl-1H-pyrrolo[2,3-b]pyridin-3-yl)-3-(m-tolyl)propanamide hydrochloride salt], the IC50 in experiment [1] was determined as 980 µM. Besides, the figures for the MIC in experiment [2] and in experiment [3] were > 512 µg/mL and 258 µg/mL, respectively.

`Cc1cccc(C(CCNC2CCC(N)CC2)c2cn(CC3CCCCC3)c3ccc(Br)cc23)c1` [Compound 169, (1S,4S)-N1-(3-(5-bromo-1-(cyclohexylmethyl)-1H-indol-3-yl)-3-(m-tolyl)propyl)cyclohexane-1,4-diamine hydrochloride salt] returned an IC50 in experiment [1] of 21 µM. Moreover, the MIC came to 5 µg/mL in experiment [2] and 2 µg/mL in experiment [3].

For the compound `Cc1ccc(C(CC(=O)NC2CCC(N)CC2)c2cn(CC3CCCCC3)c3ccccc23)cc1.Cl` [Compound 140, N-((1S,4S)-4-aminocyclohexyl)-3-(1-(cyclohexylmethyl)-1H-indol-3-yl)-3-(p-tolyl)propanamide hydrochloride salt], the IC50 in experiment [1] stood at 34 µM. Moreover, the figures for the MIC in experiment [2] and in experiment [3] were 64 µg/mL and 8 µg/mL, respectively.

`Cl.N[C@H]1CC[C@H](NC(=O)CCc2cc3ccccc3n2CC2CCCCC2)CC1` [Compound 276, N-((1R,4R)-4-aminocyclohexyl)-3-(1-(cyclohexylmethyl)-1H-indol-2-yl)propanamide hydrochloride salt] returned an IC50 in experiment [1] of 43 µM. The minimal inhibitory concentration (MIC) in experiment [2] and in experiment [3] was 54 µg/mL throughout.

Compound `Cc1cccc(C(CCNC[C@H]2CC[C@H](CN)CC2)c2cn(CC3CCCCC3)c3ccccc23)c1` (stereo partly drawn) [Compound 177, N-(((1R,4R)-4-(aminomethyl)cyclohexyl)methyl)-3-(1-(cyclohexylmethyl)-1H-indol-3-yl)-3-(m-tolyl)propan-1-amine hydrochloride salt] showed an IC50 in experiment [1] of 15 µM. The results for the MIC in experiment [2] and in experiment [3] were 18 µg/mL and 9 µg/mL, respectively.

Take `Cc1cccc(C(CC(=O)N[C@H]2CC[C@H](N)CC2)c2cn(C(C)C)c3ccccc23)c1.Cl` (stereo partly drawn) [Compound 154, N-((1R,4R)-4-aminocyclohexyl)-3-(1-isopropyl-1H-indol-3-yl)-3-(m-tolyl)propanamide hydrochloride salt]: the IC50 in experiment [1] turned out to be 1230 µM. The MIC was 256 µg/mL in experiment [2] and 128 µg/mL in experiment [3].

The compound `Cc1cccc(C(CCNC2CCNCC2)c2cn(CC3CCOCC3)c3ccccc23)c1` (stereo not drawn) [Compound 292, N-(3-(1-((tetrahydro-2H-pyran-4-yl)methyl)-1H-indol-3-yl)-3-(m-tolyl)propyl)piperidin-4-amine hydrochloride salt] yielded an IC50 in experiment [1] of 130 µM. In addition, the MIC came out at 66 µg/mL in experiment [2] and 33 µg/mL in experiment [3].

(Values after patent US20210246115A1 (Bioimics AB, priority 2017, published 2021).)
